Assay results published in patent US6818665B2, “Treatment of obstructive sleep apnea” (priority 2003, dated 2004).

Test system: OSA patients
Experiment: oximeter tests / sleeping registration of OSA patients
Type: in vivo
Text: The medical treatment of OSA must be effective, inexpensive and without any side effects because it must be ongoing for the rest of the patient's life during the sleeping period regardless of the time of the day or night. By conducting regular oximeter tests in connection with the fitting of mechanical assistance, it has been concluded that anti-oxidants, such as tokoferole, has some effect. Hormones that govern the sleep initiation during for example, jet lag, such melatonin that is formed in a gland from the amino-acid tryptophane with serotonin as an intermediate step. […] The corresponding effect has been noticed when the intake has stopped and this effect is normally quicker.
DHEA prevents unwanted complete or total (100%) relaxation of the muscles in the throat region caused melatonin. […] ACTH may be used to increase the production of DHEA. Melatonin may be taken as tablets and lasts about 24 hours. Preferably, melatonin is taken at night. A suitable melatonin dose may be about 0.5-5 mg. DHEA may also be taken as tablets and lasts about 24 hours. Preferably, DHEA is taken in the morning. A suitable DHEA dose may be about 1-5 mg. Of course, melatonin and DHEA may be administered at other times of the day.

COc1ccc2[nH]cc(CCNC(C)=O)c2c1 [melatonin, 5-metoxy-N-acetyletryptamine]
effect on the sleeping registration of OSA patients (number of desaturations and level of SpO2 reduction below 90%) (low dose 0.5-5 mg depending on age, 10-80 years): distinct effect
time to optimal effect (regular intake): after a couple of weeks

C[C@]12CC[C@H](O)CC1=CC[C@@H]1[C@@H]2CC[C@]2(C)C(=O)CC[C@@H]12 [DHEA, dehydroepiandrosterone]
effect of parallel intake on the desired effect (reduced desaturations and SpO2 reduction) (parallel intake with melatonin, especially in combination with ACTH): synergistic increase of the desired effect

tokoferole
effect in regular oximeter tests (anti-oxidants, oximeter tests in connection with the fitting of mechanical assistance): some effect
